Test results from patent US8133472B2, “Cyclopeptides containing RGD mimetics as imaging markers for integrins” (Siemens Medical Solutions USA, Inc., priority 2008, dated 2012).
Several values for one entry are separate records, joined by “and”; a condition that tells them apart may be missing. Identical values can stand only once. Non-standard residues stand in square brackets, D forms with d. Residues, ends and D or L forms follow the SMILES beside them. *: point of attachment. X1 = O=C(Cn1cc(CCCF)nn1)NCC1OC(C(=O)*)C(O)C(O)C1O

Columns and labels:
[1] = biological target: T1, Integrin αvβ3 expressing U87MG cells (Homo sapiens, UniProt P05106+P06756); assay: Cell-based integrin receptor-binding competition assay against fluorescent compound 21; details: 10 nM compound 21, 2 hrs, FIG. 4
T1 construct: Integrin αvβ3 expressing U87MG cells; endogenous in cells; host or cells: U87MG
Experimental: After incubation, cells were washed three times to eliminate unbound cyclic peptides. Fluorescence readings (RLU) were then taken (excitation at 491 nm, emission at 518 nm, cutoff 515 nm). Fluorescence signals of wells without cyclic peptides were set as 100% and used as control. […] All treatments were carried out in triplicates.

[2] = biological target: T2, integrin αvβ3 (Homo sapiens, UniProt P05106+P06756); assay: Binding affinity to integrin αvβ3, summary statements (FIG. 1-4); details: general statement
Experimental: Compound 20 was immobilized onto a CM5 chip (Supplier: Biacore. CM5 is a SPR chip with a carboxymethylated dextran covalently attached to a gold surface) via amine coupling. Intergrin αvβ3 samples at 50 nM concentration, premixed with a wide range of concentrations of RGD test compound (0˜2000 nM), were flowed through the CM5 chip at 14° C.
The interactions between the flowing integrin αvβ3 sample and the surface of the chip were recorded by Biacore sensorgram signals. Flow cell #1 served as blank control and the flow cell #2 were coated with compound 20. After subtraction the blank signal of flow cell #1 from the signal of flow cell #2, the resulting sensorgram signals from each cycle were converted into percentage values and the Kd and IC50 values for each cyclopeptides were calculated.
Inhibitory effects of cyclic peptides were quantified by measuring their effects on the interactions between immobilized integrin and biotinylated soluble ligand. Integrin αvβ3 was immobilized on a 96 well plate. […] The wells were incubated with alkaline-phsphatase substrate and the intensities of yellow color product were measured in plate reader. […]
Integrin αvβ3 expressing U87MG cells were incubated with a series of concentration of cyclic peptides (0.01, 0.1, 1, 10, 100, 1000, 10000 nM) in the presence of 10 nM of green fluorescence labeled compound 21 for 2 hrs. […]

[3] = test system: U87MG human glioblastoma tumor xenograft; format: in vivo, mouse
Experimental: PET Studies: In vivo microPET imaging of a tumor-bearing mouse is performed on an anesthetized mouse bearing tumor xenograft of U87MG human glioblastoma after administration of the test imaging cyclic peptides. Animals are induced with 5% isoflurane/oxygen until anesthetized and then maintained on 2-2.5% isoflurane/oxygen inhalation for the duration of each PET scanning procedure (up to 2 hours). Anesthetized animals are placed on a heated pad for the duration of each PET scan. Animals are scanned at 1 hour post-injection for 30 min.

[4] = FIG. 5
Experimental: Table printed on a drawing sheet, FIG. 5
The patent's description of the figure: FIG. 5 is a microPET imaging of Compound 19 in a U87MG xenograft mouse model at 1 hour post-injection.
First reader's note: Tissue uptake from the microPET image beside the table; rows are the right-side (RS) tumor, the left-side (LS) tumor and muscle.

[5] = test system: M21 melanoma xenograft; details: integrin-positive M21 melanoma xenograft; cited from earlier work
[6] = biological target: T2, integrin αvβ3; details: background statement; cited from earlier work
[7] = test system: A431 human squamous cell carcinoma model; details: integrin negative cell line A431; cited from earlier work
[8] = cited from earlier work
[9] = test system: tumor; details: in vivo, cited from earlier work
[10] = comparison among cyclic peptides 4, 1 and RGDfK
[11] = comparison of cyclic peptides 18 and 23

With `N=C(N)NCCC[C@@H]1NC(=O)[C@H](CCCCN)NC(=O)[C@@H](Cc2ccccc2)NC(=O)[C@H](CC(=O)O)NC(=O)[C@H](CO)NC1=O` [Compound 1] (cyclo(D[dF]KRS)) as the compound, how does the “potency (competition of binding)” value [1, 10] read?
Its value is “very similar in potency”.

With `C[C@@H]1NC(=O)[C@H](CCCNC(=N)N)NC(=O)[C@H](CCCCN)NC(=O)[C@@H](Cc2ccccc2)NC(=O)[C@H](CC(=O)O)NC1=O` [Compound 4] (cyclo(RAD[dF]K)) as the compound, how does the “binding affinity to integrin αvβ3” value [2] read?
The value was “high binding affinity”.

What about the “potency (competition of binding)” value [1, 10] of the same compound?
The value was “very similar in potency”.

What does the source list for `C[C@@H]1NC(=O)[C@H](CCCNC(=N)N)NC(=O)[C@H](CCCCNC(=O)C2OC(CNC(=O)Cn3cc(CCCF)nn3)C(O)C(O)C2O)NC(=O)[C@@H](Cc2ccccc2)NC(=O)[C@H](CC(=O)O)NC1=O` (some centres unmarked) [Compound 18] (cyclo(AD[dF]K(X1)R))?
binding affinity to integrin αvβ3 [2]: high binding affinity; potency (competition of binding) [1, 11]: very similar in potency

For `C[C@@H]1NC(=O)[C@H](CCCNC(=N)N)NC(=O)[C@H](CCCCNC(=O)C2O[C@H](CNC(=O)Cn3cc(CCC[18F])nn3)[C@H](O)C(O)[C@@H]2O)NC(=O)[C@@H](Cc2ccccc2)NC(=O)[C@H](CC(=O)O)NC1=O` (some centres unmarked) [Compound 19], which “tumor uptake and retention” value ([3]; microPET, 1 hour post-injection, FIG. 5) is on record?
The value was “good tumor uptake and retention”.

What about the “wash-out rate from muscle and other healthy tissues” value ([3]; mouse, in vivo) of the same compound?
Its value is “fast wash-out rate”.

And the “%ID/g” value [4]?
Its value is 0.042 %ID/g and 0.034 %ID/g and 0.025 %ID/g.

Which “potency (competition of binding)” value [1, 11] does the source give for `C[C@@H]1NC(=O)[C@H](CCCNC(=N)N)NC(=O)[C@H](CCCCNC(=O)CCN(CCC(=O)NCCCC[C@@H]2NC(=O)[C@@H](Cc3ccccc3)NC(=O)[C@H](CC(=O)O)NC(=O)[C@H](C)NC(=O)[C@H](CCCNC(=N)N)NC2=O)C(=O)CCOCCOCCOCCOCCNC(=O)n2cc(CCCF)nn2)NC(=O)[C@@H](Cc2ccccc2)NC(=O)[C@H](CC(=O)O)NC1=O` [Compound 23] here?
The value was “very similar in potency”.

Which tumor uptake [5] does the source give for `CC([18F])C(=O)NC[C@H]1OC(C(=O)NCCCC[C@@H]2NC(=O)[C@@H](Cc3ccccc3)NC(=O)[C@H](CC(=O)O)NC(=O)CNC(=O)[C@H](CCCNC(=N)N)NC2=O)[C@@H](O)C(O)C1O` (some centres unmarked) [[^18F]Galacto-RGD] here?
The tumor uptake was “integrin αvβ3-specific tumor uptake”.

What about the integrin binding affinity [6] of the same compound?
The integrin binding affinity was “relatively low integrin binding affinity”.

And the tracer localization [7]?
Its tracer localization is “did not localize on tumor cells”.

And the “tumor standard uptake values” ([8]; background statement)?
The value was “modest tumor standard uptake values”.

What about the “tracer accumulation in organs” value ([8]; both preclinical models and human studies) of the same compound?
The value was “prominent tracer accumulation in the liver, kidneys, spleen, and intestines”.

For c(RGDyV), which tumor uptake ([9]; 125I-labeled peptide) is on record?
The tumor uptake was “receptor-specific tumor uptake”.

What about the excretion [9] of the same compound?
Its excretion is “unfavorable hepatobiliary excretion”.

And the tumor washout [9]?
The tumor washout was “rapid tumor washout”.
